In ChEMBL document CHEMBL5331051, “Cationic, amphipathic small molecules based on a triazine-piperazine-triazine scaffold as a new class of antimicrobial agents” (Eur J Med Chem, 2022):
≈ marks a conversion by molar mass, not a printed value. Calls of active or inactive are those of the source. The rule behind the calls is not given here.

Key:
Staphylococcus aureus [1] = assay: Synergistic antibacterial activity against methicillin-resistant Staphylococcus aureus CCARM 3089 strain assessed as oxacillin MIC by checkerboard assay; type: functional
Erythrocyte = assay: Hemolytic activity in sheep RBC assessed as minimal hemolytic concentration causing 10% hemolysis incubated for 1 hr by ELISA; type: toxicity, cell-based, Ovis aries
Pseudomonas aeruginosa [2] = assay: Antibiofilm activity against multidrug-resistant Pseudomonas aeruginosa assessed as inhibition of biofilm formation; type: functional
Staphylococcus aureus [3] = assay: Antibacterial activity against methicillin-resistant Staphylococcus aureus CCARM 3090 strain assessed as bacterial growth inhibition measured at 18 to 24 hrs by microdilution assay; type: functional; settings: time 18-24 hrs
Pseudomonas aeruginosa [4] = assay: Synergistic antibacterial activity against multidrug-resistant Pseudomonas aeruginosa CCARM 2095 strain assessed as chloramphenicol fractional inhibitory concentration by checkerboard assay; type: functional
Escherichia coli [5] = assay: Antibacterial activity against Escherichia coli KCTC 1682 strain assessed as bacterial growth inhibition measured at 18 to 24 hrs in presence of 4.5 mM KCl by microdilution assay; type: functional; settings: time 18-24 hrs
Pseudomonas aeruginosa [6] = assay: Synergistic antibacterial activity against multidrug-resistant Pseudomonas aeruginosa CCARM 2095 strain assessed as ciprofloxacin fractional inhibitory concentration by checkerboard assay; type: functional
Staphylococcus aureus [7] = assay: Synergistic antibacterial activity against multidrug-resistant Staphylococcus aureus CCARM 3089 strain assessed as ciprofloxacin fractional inhibitory concentration by checkerboard assay; type: functional
Staphylococcus aureus [8] = assay: Antibacterial activity against Staphylococcus aureus KCTC 1621 strain assessed as bacterial growth inhibition measured at 18 to 24 hrs by microdilution assay; type: functional; settings: time 18-24 hrs
Staphylococcus aureus [9] = assay: Antibacterial activity against methicillin-resistant Staphylococcus aureus CCARM 3095 strain assessed as bacterial growth inhibition measured at 18 to 24 hrs by microdilution assay; type: functional; settings: time 18-24 hrs
Pseudomonas aeruginosa [10] = assay: Synergistic antibacterial activity against multidrug-resistant Pseudomonas aeruginosa CCARM 2095 strain assessed as bacterial growth inhibition in presence of ciprofloxacin by checkerboard assay; type: functional
Cell membrane = assay: Induction of inner membrane permeabilization in Escherichia coli ML-35 assessed as increase in […] at 2 times MIC by ONPG staining based analysis
Staphylococcus aureus [11] = assay: Synergistic antibacterial activity against methicillin-resistant Staphylococcus aureus CCARM 3089 strain assessed as fractional inhibitory concentration in presence of oxacillin by checkerboard assay; type: functional
Lipopolysaccharide (LPS) [12] = assay: Binding affinity to Escherichia coli O111:B4 lipopolysaccharide assessed as suppression of FTIC labeled LPS binding to mouse RAW264.7 cells at 20 ug/ml pretreated LPS with cells for 1 hr followed by compound addition measured after 1 hr by flow cytometer assay (reference value: 48.12%); type: cell-based; settings: dose 20.0 µg/ml
Staphylococcus aureus [13] = assay: Antibacterial activity against methicillin-resistant Staphylococcus aureus CCARM 3089 strain assessed as bacterial growth inhibition measured at 18 to 24 hrs by microdilution assay; type: functional; settings: time 18-24 hrs
Staphylococcus aureus [14] = assay: Synergistic antibacterial activity against multidrug-resistant Staphylococcus aureus CCARM 3089 strain assessed as fractional inhibitory concentration index in presence of ciprofloxacin by checkerboard assay; type: functional
Pseudomonas aeruginosa [15] = assay: Antibiofilm activity against multidrug-resistant Pseudomonas aeruginosa assessed as biofilm eradication; type: functional
Staphylococcus aureus [16] = assay: Antibacterial activity against Staphylococcus aureus KCTC 1621 strain assessed as bacterial growth inhibition measured at 18 to 24 hrs in presence of 4 uM FeCl3 by microdilution assay; type: functional; settings: time 18-24 hrs
Pseudomonas aeruginosa [17] = assay: Synergistic antibacterial activity against multidrug-resistant Pseudomonas aeruginosa CCARM 2095 strain assessed as chloramphenicol fractional inhibitory concentration in presence of chloramphenicol by checkerboard assay; type: functional
Staphylococcus aureus [18] = assay: Additive antibacterial activity against multidrug-resistant Staphylococcus aureus CCARM 3089 strain assessed as ciprofloxacin fractional inhibitory concentration by checkerboard assay; type: functional
Escherichia coli [19] = assay: Antibacterial activity against Escherichia coli KCTC 1682 strain assessed as bacterial growth inhibition measured at 18 to 24 hrs in presence of 4 uM FeCl3 by microdilution assay; type: functional; settings: time 18-24 hrs
Lipopolysaccharide (LPS) [20] = assay: Binding affinity to Escherichia coli O111:B4 lipopolysaccharide assessed as suppression of FTIC labeled LPS binding to mouse RAW264.7 cells at 20 ug/ml pretreated with LPS followed by compound addition by flow cytometer assay (reference value: 67.4%); type: cell-based; settings: dose 20.0 µg/ml
Pseudomonas aeruginosa [21] = assay: Synergistic antibacterial activity against multidrug-resistant Pseudomonas aeruginosa CCARM 2095 strain assessed as ciprofloxacin fractional inhibitory concentration in presence of ciprofloxacin by checkerboard assay; type: functional
RAW264.7 = assay: Antiinflammatory activity in LPS-induced mouse RAW264.7 cells assessed as reduction in NO production at 5 ug/ml measured after 72 hrs by ELISA assay relative to control; type: functional
Enterococcus faecium = assay: Antibacterial activity against vancomycin-resistant Enterococcus faecium ATCC 51559 strain assessed as bacterial growth inhibition measured at 18 to 24 hrs by microdilution assay; type: functional; settings: time 18-24 hrs
Pseudomonas aeruginosa [22] = assay: Synergistic antibacterial activity against multidrug-resistant Pseudomonas aeruginosa CCARM 2095 strain assessed as bacterial growth inhibition in presence of oxacillin by checkerboard assay; type: functional
Pseudomonas aeruginosa [23] = assay: Antibacterial activity against Pseudomonas aeruginosa KCTC 1637 strain assessed as bacterial growth inhibition measured at 18 to 24 hrs by microdilution assay; type: functional; settings: time 18-24 hrs
Staphylococcus aureus [24] = assay: Antibacterial activity against Staphylococcus aureus KCTC 1621 strain assessed as bacterial growth inhibition measured at 18 to 24 hrs in presence of 1 mM MgCl2 by microdilution assay; type: functional; settings: time 18-24 hrs
Lipopolysaccharide (LPS) [25] = assay: Displacement of BODIPY-TR-cadaverine from Escherichia coli O111:B4 lipopolysaccharide assessed as increase in fluorescence at 5 ug/ml by fluorescence based assay relative to control; settings: dose 5.0 µg/ml
Staphylococcus aureus [26] = assay: Antibacterial activity against Staphylococcus aureus KCTC 1621 strain assessed as bacterial growth inhibition measured at 18 to 24 hrs in presence of 6 uM NH4Cl by microdilution assay; type: functional; settings: time 18-24 hrs
Pseudomonas aeruginosa [27] = assay: Antibacterial activity against multidrug-resistant Pseudomonas aeruginosa CCARM 2095 strain assessed as bacterial growth inhibition measured at 18 to 24 hrs by microdilution assay; type: functional; settings: time 18-24 hrs
Staphylococcus aureus [28] = assay: Synergistic antibacterial activity against methicillin-resistant Staphylococcus aureus CCARM 3089 strain assessed as fractional inhibitory concentration in presence of ciprofloxacin by checkerboard assay; type: functional
Escherichia coli [29] = assay: Antibacterial activity against Escherichia coli KCTC 1682 strain assessed as bacterial growth inhibition measured after 6 hrs in presence of pepsin by radial diffusion assay; type: functional, organism-based
Escherichia coli [30] = assay: Antibacterial activity against Escherichia coli KCTC 1682 strain assessed as bacterial growth inhibition measured at 18 to 24 hrs in presence of 2.5 mM CaCl2 by microdilution assay; type: functional; settings: time 18-24 hrs
Pseudomonas aeruginosa [31] = assay: Synergistic antibacterial activity against multidrug-resistant Pseudomonas aeruginosa CCARM 2095 strain assessed as oxacillin MIC by checkerboard assay; type: functional
Staphylococcus aureus [32] = assay: Additive antibacterial activity against methicillin-resistant Staphylococcus aureus CCARM 3089 strain assessed as bacterial growth inhibition in presence of chloramphenicol by checkerboard assay; type: functional
Staphylococcus aureus [33] = assay: Additive antibacterial activity against multidrug-resistant Staphylococcus aureus CCARM 3089 strain assessed as fractional inhibitory concentration index in presence of chloramphenicol by checkerboard assay; type: functional

| SMILES | MHC (Erythrocyte) | MIC (Staphylococcus aureus [3]) | MIC (Escherichia coli [5]) | MIC (Staphylococcus aureus [8]) | MIC (Staphylococcus aureus [9]) | Activity (Cell membrane) | Flu intensity (Lipopolysaccharide (LPS) [12]) | MIC (Staphylococcus aureus [13]) | MIC (Staphylococcus aureus [16]) | MIC (Escherichia coli [19]) | Flu intensity (Lipopolysaccharide (LPS) [20]) | inhibition at 5 µg/mL (RAW264.7) | MIC (Enterococcus faecium) | MIC (Pseudomonas aeruginosa [23]) | MIC (Staphylococcus aureus [24]) | Activity (Lipopolysaccharide (LPS) [25]) | MIC (Staphylococcus aureus [26]) | MIC (Pseudomonas aeruginosa [27]) | Activity (Escherichia coli [29]) | MIC (Escherichia coli [30]) | further results |
| --- | --- | --- | --- | --- | --- | --- | --- | --- | --- | --- | --- | --- | --- | --- | --- | --- | --- | --- | --- | --- | --- |
| NCCCN(CCCN)c1nc(NCc2ccccc2)nc(N2CC(Cc3ccccc3)N(c3nc(NCc4ccccc4)nc(N(CCCN)CCCN)n3)CC2Cc2ccccc2)n1 (stereo unspecified) | > 318.5 µM | 2.8 µM (≈ 2.5 µg/mL) | 5 µM | 2.5 µM (≈ 2.23 µg/mL) | 5 µM (≈ 4.47 µg/mL) | inactive | 27.4% | 5 µM (≈ 4.47 µg/mL) | 5 µM | 5 µM | 13.2% | 75.7% | 10 µM (≈ 8.93 µg/mL) | 10 µM (≈ 8.93 µg/mL) | 10 µM | > 50% | 5 µM | 20 µM (≈ 17.9 µg/mL) | Active | 5 µM | MIC (Staphylococcus aureus [1]): 128 µg/mL; MBEC50 (Pseudomonas aeruginosa [2]): 10 µM; MBEC90 (Pseudomonas aeruginosa [2]): 39.8 µM; MBIC (Pseudomonas aeruginosa [2]): 10 µM; MBIC50 (Pseudomonas aeruginosa [2]): 5 µM; FIC (Pseudomonas aeruginosa [4]): 0.125; FIC (Pseudomonas aeruginosa [6]): 0.063; FIC (Staphylococcus aureus [7]): 0.125; MIC (Pseudomonas aeruginosa [10]): 4 µg/mL; FIC (Staphylococcus aureus [11]): 0.25; fractional inhibitory concentration index (FICI) (Staphylococcus aureus [14]): 0.375; MBEC50 (Pseudomonas aeruginosa [15]): 10 µM; MBEC90 (Pseudomonas aeruginosa [15]): 39.8 µM; FIC (Pseudomonas aeruginosa [17]): 0.25; FIC (Staphylococcus aureus [18]): 0.125; FIC (Pseudomonas aeruginosa [21]): 0.25; MIC (Pseudomonas aeruginosa [22]): 4 µg/mL; FIC (Staphylococcus aureus [28]): 0.25; MIC (Pseudomonas aeruginosa [31]): 256 µg/mL |
| NCCCCNc1nc(NCCCCN)nc(N2CC(Cc3ccccc3)N(c3nc(NCCCCN)nc(NCCCCN)n3)CC2Cc2ccccc2)n1 (stereo unspecified) | > 332.8 µM | 5.2 µM (≈ 4 µg/mL) | 10.4 µM | 5.2 µM (≈ 4 µg/mL) | 10.4 µM (≈ 8 µg/mL) | inactive | 21.2% | 5.2 µM (≈ 4 µg/mL) | 20.8 µM | 10.4 µM | 19.5% | 72.6% | 41.6 µM (≈ 32 µg/mL) | 5.2 µM (≈ 4 µg/mL) | 5.2 µM | > 50% | 5.2 µM | 41.6 µM (≈ 32 µg/mL) | Active | 10.4 µM | MIC (Staphylococcus aureus [1]): 256 µg/mL; MIC (Staphylococcus aureus [32]): 2 µg/mL; FIC (Pseudomonas aeruginosa [4]): 0.125; FIC (Pseudomonas aeruginosa [6]): 0.125; FIC (Staphylococcus aureus [7]): 0.125; MIC (Pseudomonas aeruginosa [10]): 8 µg/mL; fractional inhibitory concentration index (FICI) (Staphylococcus aureus [33]): 0.625; FIC (Staphylococcus aureus [11]): 0.25; fractional inhibitory concentration index (FICI) (Staphylococcus aureus [14]): 0.375; FIC (Pseudomonas aeruginosa [17]): 0.25; FIC (Staphylococcus aureus [18]): 0.125; FIC (Pseudomonas aeruginosa [21]): 0.25; MIC (Pseudomonas aeruginosa [22]): 8 µg/mL; FIC (Staphylococcus aureus [28]): 0.25; MIC (Pseudomonas aeruginosa [31]): 256 µg/mL |
| N=C(N)NCCNc1nc(NCCNC(=N)N)nc(N2CC(Cc3ccccc3)N(c3nc(NCCNC(=N)N)nc(NCCNC(=N)N)n3)CC2Cc2ccccc2)n1 (stereo unspecified) | > 309.8 µM | 4.8 µM (≈ 3.96 µg/mL) | 9.7 µM | 4.8 µM (≈ 3.96 µg/mL) | 9.7 µM (≈ 8 µg/mL) | inactive | 40.6% | 9.7 µM (≈ 8 µg/mL) | 9.6 µM | 19.4 µM | 21.1% | 68.1% | 38.7 µM (≈ 31.9 µg/mL) | 4.8 µM (≈ 3.96 µg/mL) | 9.6 µM | > 50% | 4.8 µM | 19.4 µM (≈ 16 µg/mL) | Active | 9.7 µM | MIC (Staphylococcus aureus [32]): 4 µg/mL; fractional inhibitory concentration index (FICI) (Staphylococcus aureus [33]): 0.75 |
